Measured values from US11932636B2, “RAD51 inhibitors” (Cyteir Therapeutics, Inc., priority 2019, dated 2024).

The molecules below were run on Daudi cells (AID positive) (assay: Compound primary screening: cell death in AID positive Daudi cells (Cell-Titer Glo, Day 7)). Details: Homo sapiens, 168 h; Daudi cells, AID positive; cell death on Day 7, Cell-Titer Glo; read-out: Cellular activity in AID + (Daudi).
Format: cell-based
Method: Example 149. Compound Primary Screening
AID expressing cells are dependent upon RAD51 for survival; inhibiting RAD51 in AID positive cells results in a cytotoxic effect.
A 96 well u-bottom plate was prepared by writing the experiment number, plate number, date and initials in the top right corner of the plate lid. With a sterile 300 ml reservoir, and 25 ml serological pipette, evaporation buffer media was pipetted into reservoir in 25 ml increments. Using the liquid handler, 150 ul of evaporation buffer media was pipetted from reservoir into rows A and H, and Columns 1 and 12 of the 96 well u-bottom plate. Cell cultures were counted to obtain the density of cells per ml, and the culture viability. The cell density information was used to obtain 1,000,000 cells from culture using a 5 mL serological pipette into an epi tube. The cell density information from the culture was used to calculate the number of cells and volume of media needed for the assay to seed 1250 cells in 130 ul of media per available culture well in the 96 well u-bottom plate. Rows B through F were used for cells (50 wells in total), with row G left for an empty media control. The calculation was overestimated by 10 mL to account for the dead volume in the 300 ml reservoir. Once the media volume was calculated, the appropriate volume of media was pipetted in 25 mL increments into the 250 mL bottle using a 25 mL serological pipette. The 250 ml bottle was capped tightly, and placed into a 37° C. water bath for 2 minutes. While the culture media was warming, 10 mL of fresh media was pipetted from the 500 mL culture media bottle into a sterile 25 mL reservoir. Using the Eppendorf multichannel pipette, 130 ul of media was pipetted from the 25 mL reservoir into row G of the 96 well u-bottom plate. Once the 250 mL bottle of media was warmed, the volume of culture needed was pipetted into the bottle, and mixed gently with a 25 mL serological pipette as to not create bubbles, and then the contents of the bottle were pipetted into a new 300 mL reservoir. Using the liquid handler, 130 ul of culture was pipetted from the 300 mL reservoir into rows B through F of the 96 well u-bottom plate. Once the culture was added, the plate was placed into a 37° C. incubator until the compound master plate was prepared for use.
Two 96 well u-bottom plates were prepared by writing the master plate name in the upper right corner of the plate lid. Labeling one DMSO master and the other Media Master. The compounds of interest were obtained from the laboratory freezer, and placed into a 25 well storage box with a lid, and set the box aside. The compounds were vortexed after thawing but before use. Using an automatic multichannel pipette, 20 ul of 100% DMSO was pipetted into wells B3-B11 through G3-G11 of the DMSO master plate. For each compound on the master plate, 50 ul of the compound were pipetted in the appropriate well of row 2 (reference plate map to determine appropriate well). A serial dilution was prepared beginning by aspirating 20 ul from row 2 and mixing with row 3, repeating until row 11 was reached. Using the liquid handler, 194 ul of Daudi media was dispensed into wells B2-B11 through G2-G11 of the Media master plate. Using the liquid handler, 6 ul from the DMSO master plate was aspirated and dispensed into the media master plate, mixing 100 ul twice.
Compounds from master plate were then added to the culture plate. The culture plates were removed from the incubator, and set inside the biosafety cabinet. Using a liquid handler, 20 ul from wells B2 to B11 through G2 to G11 of master plate were aspirated, and dispensed into wells B2 to B11 through G2 to G11 of culture plate. This set was continued with each culture plate. Once the culture plates acquired their 20 ul of compound dilutions, they were placed back into the incubator, until their reads on Day 7 of experiment.
Cell death was measured on Day 7 of the experiment using Cell-Titer Glo and a Promega Plate reader.

**Q.** For `CC(C)OC(=O)N[C@H]1CC[C@H](c2ncc(-c3ccc(O)cc3S(=O)(=O)NC(C)(C)C)s2)CC1` [Compound 23, isopropyl (trans-4-(5-(2-(N-(tert-butyl)sulfamoyl)-4-hydroxyphenyl)thiazol-2-yl)cyclohexyl)carbamate], which EC50 is on record?
**A.** 0.1 to 1 µM

**Q.** How did the EC50 turn out when `CC(C)OC(=O)N[C@H]1CC[C@H](c2ncc(-c3ccc(O)cc3S(N)(=O)=O)s2)CC1` [Compound 24, isopropyl (trans-4-(5-(4-hydroxy-2-sulfamoylphenyl)thiazol-2-yl)cyclohexyl)carbamate] was run?
**A.** 0.1 to 1 µM

**Q.** How did the EC50 turn out when `CC(C)OC(=O)N[C@H]1CC[C@H](c2ncc(-c3ccc(OCCNC(=O)OC(C)(C)C)cc3S(=O)(=O)NC(C)(C)C)s2)CC1` [Compound 25, isopropyl N-[trans-4-[5-[4-[2-(tert-butoxycarbonylamino)ethoxy]-2-(tert-butylsulfamoyl)phenyl]thiazol-2-yl]cyclohexyl]carbamate] was run?
**A.** 1 to 10 µM

**Q.** For `CC(C)OC(=O)N[C@H]1CC[C@H](c2ncc(-c3ccc(OCCN)cc3S(=O)(=O)NC(C)(C)C)s2)CC1` [Compound 26, isopropyl (trans-4-(5-(4-(2-aminoethoxy)-2-(N-(tert-butyl)sulfamoyl)phenyl)thiazol-2-yl)cyclohexyl)carbamate], which EC50 is on record?
**A.** 1 to 10 µM

**Q.** Which EC50 does the source give for `CC(C)OC(=O)N[C@H]1CC[C@H](c2ncc(-c3ccc(OC(C)C)cc3S(=O)(=O)NC(C)(C)C)s2)CC1` [Compound 27, isopropyl (trans-4-(5-(2-(N-(tert-butyl)sulfamoyl)-4-isopropoxyphenyl)thiazol-2-yl)cyclohexyl)carbamate] here?
**A.** 1 to 10 µM

**Q.** With `COc1ccc(-c2cnc([C@H]3CC[C@H](NC(=O)OC(C)C)CC3)s2)c(S(=O)(=O)NC(C)(C)C)c1` [Compound 28, isopropyl (trans-4-(5-(2-(N-(tert-butyl)sulfamoyl)-4-methoxyphenyl)thiazol-2-yl)cyclohexyl)carbamate] as the molecule, how does the EC50 read?
**A.** > 10 µM

**Q.** For `CC(C)OC(=O)N[C@H]1CC[C@H](c2ncc(-c3ccc(OCCN(C)C(=O)OC(C)(C)C)cc3S(=O)(=O)NC(C)(C)C)s2)CC1` [Compound 29, tert-butyl (2-(3-(N-(tert-butyl)sulfamoyl)-4-(2-(trans-4-((isopropoxycarbonyl)amino)cyclohexyl)thiazol-5-yl)phenoxy)ethyl)(methyl)carbamate], which EC50 is on record?
**A.** 1 to 10 µM

**Q.** For `CC(C)OC(=O)N[C@H]1CC[C@H](c2ncc(-c3ccc(OCCN(C)C)cc3S(=O)(=O)NC(C)(C)C)s2)CC1` [Compound 30, isopropyl (trans-4-(5-(2-(N-(tert-butyl)sulfamoyl)-4-(2-(dimethylamino)ethoxy)phenyl)thiazol-2-yl)cyclohexyl)carbamate], which EC50 is on record?
**A.** > 10 µM

**Q.** Which EC50 does the source give for `COCCOc1ccc(-c2cnc([C@H]3CC[C@H](NC(=O)OC(C)C)CC3)s2)c(S(=O)(=O)NC(C)(C)C)c1` [Compound 31, isopropyl (trans-4-(5-(2-(N-(tert-butyl)sulfamoyl)-4-(2-methoxyethoxy)phenyl)thiazol-2-yl)cyclohexyl)carbamate] here?
**A.** 1 to 10 µM

**Q.** With `CNCCOc1ccc(-c2cnc([C@H]3CC[C@H](NC(=O)OC(C)C)CC3)s2)c(S(=O)(=O)NC(C)(C)C)c1` [Compound 32, isopropyl (trans-4-(5-(2-(N-(tert-butyl)sulfamoyl)-4-(2-(methylamino)ethoxy)phenyl)thiazol-2-yl)cyclohexyl)carbamate] as the molecule, how does the EC50 read?
**A.** > 10 µM

**Q.** How did the EC50 turn out when `CC(C)COCc1ccc(-c2cnc([C@H]3CC[C@H](NC(=O)OC(C)C)CC3)s2)c(S(=O)(=O)NC(C)(C)C)c1` [Compound 33, isopropyl (trans-4-(5-(2-(N-(tert-butyl)sulfamoyl)-4-(isobutoxymethyl)phenyl)thiazol-2-yl)cyclohexyl)carbamate] was run?
**A.** 0.1 to 1 µM

**Q.** `CC(C)COCc1ccc(-c2cnc([C@H]3CC[C@H](NC(=O)OC4COC4)CC3)s2)c(S(=O)(=O)NC(C)(C)C)c1` [Compound 34, oxetan-3-yl trans-N-[4-[5-[2-(tert-butylsulfamoyl)-4-(isobutoxymethyl)phenyl]thiazol-2-yl]cyclohexyl]carbamate] was tested. Which EC50 did it give?
**A.** 1 to 10 µM
